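1) Cells in 96-well plates. 2) Compound, 48 h, 5 concentrations. 3) Linear interpolation between surrounding doses. 4) Unreached endpoint = highest concentration. Abbreviation: GI50, concentration required for 50% inhibition of growth.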 Active and inactive are the calls of the source. No stated cut-off is given here; in the data, active = GI50 up to about 1.1 µM and inactive = higher.
Key:
Experiment in all cases: DTP human tumour cell line panel, 48 h
786-0 = system: 786-0
A498 = system: A498
A549 = system: A549
ACHN = system: ACHN
CAKI-1 = system: CAKI-1
CCRF-CEM = system: CCRF-CEM
COLO 205 = system: COLO 205
DU-145 = system: DU-145
HCC 2998 = system: HCC 2998
HCT-116 = system: HCT-116
HCT-15 = system: HCT-15
HL-60 = system: HL-60
HOP-62 = system: HOP-62
HT-29 = system: HT-29
Hs-578T = system: Hs-578T
K562 = system: K562
KM12 = system: KM12
LOX IMVI = system: LOX IMVI
M14 = system: M14
MCF7 = system: MCF7
MDA-MB-231 = system: MDA-MB-231
MDA-MB-435 = system: MDA-MB-435
MDA-N = system: MDA-N
MOLT-4 = system: MOLT-4
Malme-3M = system: Malme-3M
NCI-H226 = system: NCI-H226
NCI-H23 = system: NCI-H23
NCI-H460 = system: NCI-H460
NCI/ADR-RES = system: NCI/ADR-RES
OVCAR-3 = system: OVCAR-3
OVCAR-4 = system: OVCAR-4
OVCAR-5 = system: OVCAR-5
OVCAR-8 = system: OVCAR-8
PC-3 = system: PC-3
RPMI-8226 = system: RPMI-8226
RXF 393 = system: RXF 393
SF-268 = system: SF-268
SF-295 = system: SF-295
SF-539 = system: SF-539
SK-MEL-28 = system: SK-MEL-28
SK-MEL-2 = system: SK-MEL-2
SK-MEL-5 = system: SK-MEL-5
SK-OV-3 = system: SK-OV-3
SN12C = system: SN12C
SNB-19 = system: SNB-19
SNB-75 = system: SNB-75
T47D = system: T47D
TK-10 = system: TK-10
U-251 = system: U-251
UACC-257 = system: UACC-257
UACC-62 = system: UACC-62
UO-31 = system: UO-31
EKVX = system: EKVX
IGROV-1 = system: IGROV-1
NCI-H522 = system: NCI-H522
SR = system: SR
SW-620 = system: SW-620
HOP-92 = system: HOP-92

With `O=C1CCC2CCC1C2` (stereo not drawn) the GI50 (786-0) was > 100 µM (inactive), the GI50 (A498) was > 100 µM (inactive) and the GI50 (A549) was > 100 µM (inactive). The GI50 (ACHN) was > 100 µM (inactive), the GI50 (CAKI-1) was > 100 µM (inactive) and the GI50 (CCRF-CEM) was > 100 µM (inactive). The GI50 (COLO 205) was > 100 µM (inactive), the GI50 (DU-145) was > 100 µM (inactive) and the GI50 (HCC 2998) was > 100 µM (inactive). The GI50 (HCT-116) was > 100 µM (inactive), the GI50 (HCT-15) was greater than 100 µM and the GI50 (HL-60) was > 100 µM (inactive). For the same molecule, the GI50 (HOP-62) was > 100 µM (inactive), the GI50 (HT-29) was > 100 µM (inactive) and the GI50 (Hs-578T) was > 100 µM (inactive). The GI50 (K562) was > 100 µM (inactive), the GI50 (KM12) was > 100 µM (inactive) and the GI50 (LOX IMVI) was > 100 µM (inactive). The GI50 (M14) was > 100 µM (inactive), the GI50 (MCF7) was > 100 µM (inactive) and the GI50 (MDA-MB-231) was > 100 µM (inactive). For the same molecule, the GI50 (MDA-MB-435) was > 100 µM (inactive), the GI50 (MDA-N) was > 100 µM (inactive) and the GI50 (MOLT-4) was > 100 µM (inactive). The GI50 (Malme-3M) was > 100 µM (inactive), the GI50 (NCI-H226) was > 100 µM (inactive) and the GI50 (NCI-H23) was > 100 µM (inactive). The GI50 (NCI-H460) was > 100 µM (inactive), the GI50 (NCI/ADR-RES) was > 100 µM (inactive) and the GI50 (OVCAR-3) was > 100 µM (inactive). The GI50 (OVCAR-4) was > 100 µM (inactive), the GI50 (OVCAR-5) was > 100 µM (inactive) and the GI50 (OVCAR-8) was > 100 µM (inactive). For the same molecule, the GI50 (PC-3) was > 100 µM (inactive), the GI50 (RPMI-8226) was > 100 µM (inactive) and the GI50 (RXF 393) was 96.4 µM (inactive). For the same molecule, the GI50 (SF-268) was > 100 µM (inactive), the GI50 (SF-295) was > 100 µM (inactive) and the GI50 (SF-539) was > 100 µM (inactive). For the same molecule, the GI50 (SK-MEL-28) was > 100 µM (inactive), the GI50 (SK-MEL-2) was > 100 µM (inactive) and the GI50 (SK-MEL-5) was > 100 µM (inactive). The GI50 (SK-OV-3) was > 100 µM (inactive), the GI50 (SN12C) was > 100 µM (inactive) and the GI50 (SNB-19) was > 100 µM (inactive). The GI50 (SNB-75) was > 100 µM (inactive), the GI50 (T47D) was > 100 µM (inactive) and the GI50 (TK-10) was > 100 µM (inactive). For the same molecule, the GI50 (U-251) was > 100 µM (inactive), the GI50 (UACC-257) was > 100 µM (inactive) and the GI50 (UACC-62) was > 100 µM (inactive). For the same molecule, the GI50 (UO-31) was > 100 µM (inactive).

With `OC1(c2ccccc2)C2CCN(CC2)C1CN1CCOCC1` (stereo not drawn) the GI50 (786-0) was > 100 µM (inactive), the GI50 (A498) was > 100 µM (inactive) and the GI50 (A549) was > 100 µM (inactive). For the same molecule, the GI50 (ACHN) was > 100 µM (inactive), the GI50 (CAKI-1) was > 100 µM (inactive) and the GI50 (CCRF-CEM) was > 100 µM (inactive). The GI50 (COLO 205) was > 100 µM (inactive), the GI50 (DU-145) was > 100 µM (inactive) and the GI50 (EKVX) was > 100 µM (inactive). For the same molecule, the GI50 (HCC 2998) was > 100 µM (inactive), the GI50 (HCT-116) was > 100 µM (inactive) and the GI50 (HCT-15) was greater than 100 µM. For the same molecule, the GI50 (HL-60) was > 100 µM (inactive), the GI50 (HOP-62) was > 100 µM (inactive) and the GI50 (HT-29) was > 100 µM (inactive). The GI50 (IGROV-1) was > 100 µM (inactive), the GI50 (K562) was > 100 µM (inactive) and the GI50 (KM12) was > 100 µM (inactive). The GI50 (LOX IMVI) was > 100 µM (inactive), the GI50 (M14) was > 100 µM (inactive) and the GI50 (MCF7) was > 100 µM (inactive). The GI50 (MDA-MB-231) was > 100 µM (inactive), the GI50 (MDA-MB-435) was > 100 µM (inactive) and the GI50 (MOLT-4) was > 100 µM (inactive). For the same molecule, the GI50 (Malme-3M) was > 100 µM (inactive), the GI50 (NCI-H226) was > 100 µM (inactive) and the GI50 (NCI-H23) was > 100 µM (inactive). For the same molecule, the GI50 (NCI-H460) was > 100 µM (inactive), the GI50 (NCI-H522) was > 100 µM (inactive) and the GI50 (NCI/ADR-RES) was > 100 µM (inactive). For the same molecule, the GI50 (OVCAR-3) was > 100 µM (inactive), the GI50 (OVCAR-4) was > 100 µM (inactive) and the GI50 (OVCAR-5) was > 100 µM (inactive). The GI50 (OVCAR-8) was > 100 µM (inactive), the GI50 (PC-3) was > 100 µM (inactive) and the GI50 (RPMI-8226) was > 100 µM (inactive). The GI50 (RXF 393) was > 100 µM (inactive), the GI50 (SF-268) was > 100 µM (inactive) and the GI50 (SF-295) was > 100 µM (inactive). For the same molecule, the GI50 (SF-539) was > 100 µM (inactive), the GI50 (SK-MEL-28) was > 100 µM (inactive) and the GI50 (SK-MEL-2) was > 100 µM (inactive). For the same molecule, the GI50 (SK-MEL-5) was > 100 µM (inactive), the GI50 (SK-OV-3) was > 100 µM (inactive) and the GI50 (SN12C) was > 100 µM (inactive). For the same molecule, the GI50 (SNB-19) was > 100 µM (inactive), the GI50 (SNB-75) was > 100 µM (inactive) and the GI50 (SR) was > 100 µM (inactive). For the same molecule, the GI50 (SW-620) was > 100 µM (inactive), the GI50 (T47D) was > 100 µM (inactive) and the GI50 (TK-10) was > 100 µM (inactive). For the same molecule, the GI50 (U-251) was > 100 µM (inactive), the GI50 (UACC-257) was > 100 µM (inactive) and the GI50 (UACC-62) was > 100 µM (inactive). For the same molecule, the GI50 (UO-31) was > 100 µM (inactive).

In the case of `CC(=O)OCC(C)C1=C(OC(C)=O)C(=O)C2(C)C/C=C(/C)CC/C=C(\C)CCC(OC(C)=O)C(C)CCC12` (stereo not drawn), the GI50 (786-0) is reported as 13.7 µM (inactive), the GI50 (ACHN) is reported as 18.2 µM (inactive) and the GI50 (CCRF-CEM) is reported as 22.4 µM (inactive). For the same molecule, the GI50 (COLO 205) was 20.8 µM (inactive), the GI50 (DU-145) was 20.1 µM (inactive) and the GI50 (HCC 2998) was 15.8 µM (inactive). The GI50 (HCT-116) was 16.9 µM (inactive), the GI50 (HCT-15) was 16.9 µM and the GI50 (HL-60) was 10.9 µM (inactive). For the same molecule, the GI50 (HOP-62) was 14.2 µM (inactive), the GI50 (HOP-92) was 7.23 µM (inactive) and the GI50 (HT-29) was 17.8 µM (inactive). For the same molecule, the GI50 (Hs-578T) was 25.4 µM (inactive), the GI50 (IGROV-1) was 14.4 µM (inactive) and the GI50 (K562) was 13.3 µM (inactive). For the same molecule, the GI50 (KM12) was 17.8 µM (inactive), the GI50 (LOX IMVI) was 16.9 µM (inactive) and the GI50 (M14) was 16.6 µM (inactive). The GI50 (MCF7) was 21.3 µM (inactive), the GI50 (MDA-MB-231) was 14.3 µM (inactive) and the GI50 (MDA-MB-435) was 15.9 µM (inactive). The GI50 (MDA-N) was 17.1 µM (inactive), the GI50 (MOLT-4) was 12.9 µM (inactive) and the GI50 (NCI-H460) was 3.55 µM (inactive). The GI50 (OVCAR-4) was 17.4 µM (inactive), the GI50 (OVCAR-5) was 12.8 µM (inactive) and the GI50 (OVCAR-8) was 19.1 µM (inactive). For the same molecule, the GI50 (PC-3) was 14.3 µM (inactive), the GI50 (RPMI-8226) was 14.3 µM (inactive) and the GI50 (SF-268) was 15.4 µM (inactive). The GI50 (SF-295) was 15.8 µM (inactive), the GI50 (SF-539) was 22.2 µM (inactive) and the GI50 (SK-MEL-28) was 17.3 µM (inactive). For the same molecule, the GI50 (SK-MEL-2) was 15 µM (inactive), the GI50 (SK-MEL-5) was 15.3 µM (inactive) and the GI50 (SN12C) was 20.1 µM (inactive). The GI50 (SNB-19) was 17.3 µM (inactive), the GI50 (SNB-75) was 24.7 µM (inactive) and the GI50 (SR) was 17.9 µM (inactive). The GI50 (SW-620) was 19.5 µM (inactive), the GI50 (T47D) was 16.1 µM (inactive) and the GI50 (TK-10) was 19.6 µM (inactive). The GI50 (U-251) was 17.1 µM (inactive), the GI50 (UACC-257) was 17.5 µM (inactive) and the GI50 (UACC-62) was 14.4 µM (inactive). The GI50 (UO-31) was 16.8 µM (inactive).

— ChEMBL document CHEMBL1201862, “PubChem BioAssay data set” (2004)
